{"source": "patent US11684675B2", "about": "“Dimeric collagen hybridizing peptides and methods of using” (University of Utah Research Foundation, priority 2015, dated 2023)", "key": {"[1]": {"experiment": "CD refolding (triple helix assembly) at 10° C. monitored at 225 nm", "assay_type": "physicochemical", "procedure": "Conversion was assumed to be at 100% after 96 h incubation at 4° C., and max trimer concentration was measured via CD ellipticity at 10° C. Samples were preheated to 80° C. in the sample cuvette for 10 min before being transferred directly to the sample holder held at a constant 10° C. Sample measurement began immediately. Initial time point for analysis was determined by measuring time for a blank (lx PBS) to thermally equilibrate in these conditions.\nFor all peptides, conversion was assumed to be at 100% after 96 h incubation at 4° C., and max trimer concentration was measured via CD ellipticity at 10° C. Samples were preheated to 80° C. in the sample cuvette for 10 min before being transferred directly to the sample holder held at a constant 10° C. Sample measurement began immediately. Initial time point for analysis was determined by measuring time for a blank (1×PBS) to thermally equilibrate in these conditions. This was set as the zero point for all peptides, as the large jump in CD due to temperature makes the initial jump irresolvable. (A) Rate of assembly of CHP 9 (60, 30, and 15 μM), over 2 h, monitored at 225 nm. (B) Rate of assembly of CHP 9d (30, 15, and 7.5 μM, corresponding to same CHP strand concentration from panel A), over 2 h, monitored at 225 nm. (C) Rate of assembly of CHP 6 (150 and 75 μM), over 2 h, monitored at 225 nm.\nFIGS. 12A and 12B show CD refolding at 10° C. of CMPs monitored at 225 nm. CMPs were heated to 80° C. for 5 minutes before being placed into the CD and initial 2 min of monitored data was removed to eliminate thermal transition. Signal was normalized to that of a fully folded peptide.\n(§1) Circular Dichroism: Circular Dichroism (CD) was measured for all peptides at 225 nm. Melting curves were taken on peptides between 10 and 80° C. at a heating rate of 0.5° C./min, with pauses at each 1° C. Refolding experiments were performed after peptide solutions were incubated at 4° C. for at least 12 hours. Concentrations were normalized to strand concentration."}, "[2]": {"system": "crosslinked gelatin films", "experiment": "Retention of CF-labelled CHPs in crosslinked gelatin films (bound at 4° C., washed at 25° C./r.t.)", "assay_type": "binding, porcine", "settings": "Example 2, washes at 4° C. then 25° C.", "procedure": "(A) Fraction of peptide remaining in a crosslinked gelatin film after 17 h at 25° C. (10 total washes). Values are normalized to fluorescence remaining in wells after 6 washes at 4° C. (>95% removal of CHPs 9r, 6r, and 5r). All washes performed in 1×PBS. (B) CHPs (15 μM) premixed into 10% porcine gelatin and preheated to 80° C. (10 min) before being added to a 96 well plate. Excess CHP-gelatin mixture was removed, then the premix was incubated at 4° C. for 2 hours. Wells were washed at 4° C., 5 times (>95% removal of CHPs 9r, 6r, and 5r). Wells were then washed for 2 hours (6 washes total) at 25° C. to monitor CHP remaining in the well. (C) Fluorescence of CHPs remaining in crosslinked gelatin after incubation at 37° C. overnight without preheating, followed by washing with 1×PBS at 37° C. (20 h). (D) Fluorescence of CHPs remaining in crosslinked gelatin after incubation at 37° C. overnight (80° C. preheating, 10 min), followed by washing with 1×PBS at 37° C. (20 h).\nBinding to Gelatin films. Peptide solutions (20 μM in PBS) were preheated to 80° C. for 10 minutes before being added directly to the crosslinked gelatin films. Peptides were allowed to fully equilibrate with the gel at 4° C. overnight before being exposed to repeated washes (4×30 min) at 4° to fully remove any non-specifically bound peptide. Gelatin wells were then washed at r.t. with PBS (5×1 h, lx 12 h) to measure retention within the gelatin films. […] To eliminate the possibility of these peptides merely becoming physically entrapped within the gelatin after forming triple helix or forming triple helix before binding, binding affinity was verified by producing a premix of the CHPs and Gelatin to eliminated diffusion-limited binding before washing the wells in a similar manner.\nFluorescence Binding: CHP binding to gelatin was monitored by conjugating a fluorescent Carboxyfluorescein (CF) molecule to the N-terminus of each peptide via standard SPPS. Solutions of the fluorescent peptides were heated to 80° C. for 5 min before injecting 50 μL onto a pre-prepared EDC-crosslinked thin gelatin film in a 96 well plate. Peptides incubated overnight at 4° C., then washed with repeated rounds of 4° C. 1×PBS followed by 25° C. 1×PBS."}, "[3]": {"experiment": "Triple helix melting point (Tm) by circular dichroism at 225 nm", "assay_type": "physicochemical", "settings": "for Tm (° C.): triple helix melting", "procedure": "FIGS. 5A, 5B, 5C, and 5D show the thermal denaturation of fully assembled CHPs and subsequent cooling to initial temperature. Samples were heated at 1° C./min from their initial temperature final temperature of 90° C. Sample was then cooled at 1° C./min to the starting temperature. (A) Thermal denaturation and partial reassembly of CHP CF-6d (150 μM) monitored at 225 nm. Sample was measured from 4° C. to 90° C. (B) Thermal denaturation and partial reassembly of CHP […] (75 μM, corresponding to 150 μM strand concentration) monitored at 225 nm. Sample was measured from 4° C. to 90° C. (C) Thermal denaturation and partial reassembly of CHP CF-9 (150 μM) monitored at 225 nm. Sample was measured from 10° C. to 90° C. (D) Thermal denaturation and partial reassembly of CHP CF-9d (75 μM, corresponding to 150 μM strand concentration) monitored at 225 nm. Sample was measured from 10° C. to 90° C.\nFIGS. 11A and 11B show the First Derivative of mean residue ellipticity (MRE) at 225 nm in CD. […] There is no significant change in melting point between the monomeric and dimeric forms of the same peptide.\nas §1"}}}
{"substance": "[(GPO)6G3)2KG [6d]", "values": [{"measurement": "refolding after two hours of incubation", "setting": "[1]; 10° C., same strand concentration", "value": "almost completely refolded in two hours"}, {"measurement": "time at which half refolded", "setting": "[1]; CD refolding, 37.5 μM", "value": 10, "unit": "min"}, {"measurement": "binding affinity to gelatin compared to monomeric form", "setting": "[2]", "value": "clear increase in binding affinity"}, {"measurement": "melting point", "setting": "[3]; Example 3", "value": 38, "unit": "°C"}, {"measurement": "Tm (° C.)", "setting": "[3]; Table 1", "value": "38 (SEQ ID NO: 58) ° C."}, {"measurement": "Tm (° C.)", "setting": "[3]; Table 2", "value": "38 (SEQ ID NO: 58) ° C."}]}
